Source: ChEMBL document CHEMBL6134854, “Development of Hydrazide-Based HDAC6 Selective Inhibitors for Treating NLRP3 Inflammasome-Related Diseases” (J Med Chem, 2025)

Columns and labels:
in vivo [1] = conditions: male, ICR, mouse, iv, 5 mg/kg
[2] = target: T1, Polyamine deacetylase HDAC10 (Homo sapiens, UniProt Q969S8); assay: Inhibition of recombinant HDAC10 (unknown origin) using Ac-Gly-Ala-Lys(AMC) as substrate preincubated for 1 hrs followed by substrate addition and measured after 2 hrs by fluorescence based microplate reader analysis
T1 sequence (Q969S8 whole entry): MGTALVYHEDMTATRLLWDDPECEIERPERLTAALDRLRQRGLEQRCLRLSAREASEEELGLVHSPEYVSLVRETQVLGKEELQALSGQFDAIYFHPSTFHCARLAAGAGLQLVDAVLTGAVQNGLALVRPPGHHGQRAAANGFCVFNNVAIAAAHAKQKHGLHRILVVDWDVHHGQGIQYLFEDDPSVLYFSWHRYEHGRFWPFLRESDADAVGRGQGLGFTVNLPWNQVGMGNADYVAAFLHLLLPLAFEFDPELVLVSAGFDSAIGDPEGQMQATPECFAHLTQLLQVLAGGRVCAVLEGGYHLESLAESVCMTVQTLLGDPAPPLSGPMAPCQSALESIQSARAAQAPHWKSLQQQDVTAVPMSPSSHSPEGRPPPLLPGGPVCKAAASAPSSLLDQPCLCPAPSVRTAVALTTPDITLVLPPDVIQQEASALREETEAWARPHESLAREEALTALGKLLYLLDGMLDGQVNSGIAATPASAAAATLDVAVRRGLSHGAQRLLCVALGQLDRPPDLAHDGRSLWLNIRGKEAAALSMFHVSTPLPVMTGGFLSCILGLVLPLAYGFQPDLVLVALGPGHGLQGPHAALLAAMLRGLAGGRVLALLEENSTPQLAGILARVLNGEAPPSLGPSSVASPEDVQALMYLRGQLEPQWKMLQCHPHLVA

L02 [3] = assay: Cytotoxicity against HL7702 cells assessed as effect on cell viability at 10 uM incubated for 48 hrs by resazurin reagent based assay; assay type: toxicity; conditions: human, l02, 48 h
J774.A1 = assay: cells; conditions: Mus musculus, J774.A1, 48 h
in vivo [4] = conditions: male, ICR, mouse, iv, 5 mg/kg; remark: listed apart in the source
Histone deacetylase 3 = Histone deacetylase 3 (Homo sapiens, UniProt O15379); assay: Inhibition of recombinant HDAC3 (unknown origin) using Boc-Lys (acetyl)-AMC as substrate preincubated for 1 hrs followed by substrate addition and measured after 2 hrs by fluorescence based microplate reader analysis
Chain of Histone deacetylase 3 (O15379 whole entry): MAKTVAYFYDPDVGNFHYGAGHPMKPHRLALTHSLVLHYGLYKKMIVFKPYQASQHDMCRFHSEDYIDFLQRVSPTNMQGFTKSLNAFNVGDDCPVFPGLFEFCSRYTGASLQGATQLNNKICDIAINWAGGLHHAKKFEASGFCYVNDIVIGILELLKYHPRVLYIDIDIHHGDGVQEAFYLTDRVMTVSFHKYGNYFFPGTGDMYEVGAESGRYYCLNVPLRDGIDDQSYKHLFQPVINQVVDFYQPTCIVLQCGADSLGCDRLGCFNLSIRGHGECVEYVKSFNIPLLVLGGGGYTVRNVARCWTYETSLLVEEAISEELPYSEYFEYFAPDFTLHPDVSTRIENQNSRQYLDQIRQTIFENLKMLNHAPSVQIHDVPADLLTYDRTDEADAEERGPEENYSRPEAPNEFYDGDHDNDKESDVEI

Histone deacetylase 9 = Histone deacetylase 9 (Homo sapiens, UniProt Q9UKV0); assay: Inhibition of recombinant HDAC9 (unknown origin) using Boc-Lys (trifluoroacetyl)AMC as substrate preincubated for 1 hrs followed by substrate addition and measured after 2 hrs by fluorescence based microplate reader analysis
Chain of Histone deacetylase 9 (Q9UKV0 whole entry): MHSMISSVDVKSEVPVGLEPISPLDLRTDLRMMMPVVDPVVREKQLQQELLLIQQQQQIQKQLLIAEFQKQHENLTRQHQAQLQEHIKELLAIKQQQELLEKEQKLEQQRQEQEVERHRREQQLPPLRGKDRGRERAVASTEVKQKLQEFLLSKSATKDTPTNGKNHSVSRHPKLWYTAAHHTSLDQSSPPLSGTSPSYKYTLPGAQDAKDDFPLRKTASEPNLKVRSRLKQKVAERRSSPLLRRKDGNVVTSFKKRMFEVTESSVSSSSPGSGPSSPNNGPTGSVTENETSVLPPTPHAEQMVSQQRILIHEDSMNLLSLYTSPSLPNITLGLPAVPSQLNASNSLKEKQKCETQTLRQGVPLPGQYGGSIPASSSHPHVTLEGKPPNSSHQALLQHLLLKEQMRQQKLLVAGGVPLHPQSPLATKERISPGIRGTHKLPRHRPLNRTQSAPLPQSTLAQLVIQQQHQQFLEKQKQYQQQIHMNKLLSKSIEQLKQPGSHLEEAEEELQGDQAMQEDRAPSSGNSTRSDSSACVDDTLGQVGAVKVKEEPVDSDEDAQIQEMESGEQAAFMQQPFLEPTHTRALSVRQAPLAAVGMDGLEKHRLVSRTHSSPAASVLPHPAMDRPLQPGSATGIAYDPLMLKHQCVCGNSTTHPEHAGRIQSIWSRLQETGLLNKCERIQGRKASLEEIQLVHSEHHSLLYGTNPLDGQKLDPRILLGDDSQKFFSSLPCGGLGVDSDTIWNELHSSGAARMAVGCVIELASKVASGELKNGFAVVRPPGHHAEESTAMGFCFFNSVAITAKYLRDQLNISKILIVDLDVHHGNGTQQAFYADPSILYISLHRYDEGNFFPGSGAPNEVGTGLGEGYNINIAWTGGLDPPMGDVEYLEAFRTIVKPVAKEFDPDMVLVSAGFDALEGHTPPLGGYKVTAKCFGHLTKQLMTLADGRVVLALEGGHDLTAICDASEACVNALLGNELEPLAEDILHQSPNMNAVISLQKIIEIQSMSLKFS

Histone deacetylase 5 = Histone deacetylase 5 (Homo sapiens, UniProt Q9UQL6); assay: Inhibition of recombinant HDAC5 (unknown origin) using Boc-Lys (trifluoroacetyl)AMC as substrate preincubated for 1 hrs followed by substrate addition and measured after 2 hrs by fluorescence based microplate reader analysis
Chain of Histone deacetylase 5 (Q9UQL6 whole entry): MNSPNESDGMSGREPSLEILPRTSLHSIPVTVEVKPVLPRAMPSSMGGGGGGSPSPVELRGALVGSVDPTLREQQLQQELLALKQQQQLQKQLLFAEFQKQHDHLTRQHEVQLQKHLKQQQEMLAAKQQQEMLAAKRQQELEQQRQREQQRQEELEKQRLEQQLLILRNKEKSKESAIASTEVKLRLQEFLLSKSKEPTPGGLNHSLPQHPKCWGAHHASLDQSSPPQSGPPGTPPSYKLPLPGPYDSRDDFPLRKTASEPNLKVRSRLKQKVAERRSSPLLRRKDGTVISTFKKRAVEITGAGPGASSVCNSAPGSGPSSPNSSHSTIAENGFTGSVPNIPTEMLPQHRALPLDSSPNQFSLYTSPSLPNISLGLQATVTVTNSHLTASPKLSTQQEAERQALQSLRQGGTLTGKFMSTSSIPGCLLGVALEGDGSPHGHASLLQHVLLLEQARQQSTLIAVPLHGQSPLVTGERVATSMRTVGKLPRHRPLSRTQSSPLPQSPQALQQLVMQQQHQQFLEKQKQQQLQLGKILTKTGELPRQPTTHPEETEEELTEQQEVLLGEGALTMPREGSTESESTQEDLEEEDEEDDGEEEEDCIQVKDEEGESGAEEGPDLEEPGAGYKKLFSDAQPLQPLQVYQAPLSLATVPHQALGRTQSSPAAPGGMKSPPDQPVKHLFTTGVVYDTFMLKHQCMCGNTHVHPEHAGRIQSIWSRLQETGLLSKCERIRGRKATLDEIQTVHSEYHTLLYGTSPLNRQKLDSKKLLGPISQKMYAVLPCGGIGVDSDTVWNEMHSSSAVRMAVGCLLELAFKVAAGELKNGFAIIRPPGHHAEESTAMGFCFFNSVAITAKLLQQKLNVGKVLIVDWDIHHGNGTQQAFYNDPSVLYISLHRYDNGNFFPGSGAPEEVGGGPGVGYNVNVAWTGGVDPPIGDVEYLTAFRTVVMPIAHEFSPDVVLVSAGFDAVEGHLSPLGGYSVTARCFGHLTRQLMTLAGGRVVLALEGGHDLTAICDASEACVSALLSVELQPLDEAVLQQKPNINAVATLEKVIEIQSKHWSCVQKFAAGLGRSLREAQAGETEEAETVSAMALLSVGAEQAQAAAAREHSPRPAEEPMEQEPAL

Histone deacetylase 4 = Histone deacetylase 4 (Homo sapiens, UniProt P56524); assay: Inhibition of recombinant HDAC4 (unknown origin) using Boc-Lys (trifluoroacetyl)AMC as substrate preincubated for 1 hrs followed by substrate addition and measured after 2 hrs by fluorescence based microplate reader analysis
Chain of Histone deacetylase 4 (P56524 whole entry): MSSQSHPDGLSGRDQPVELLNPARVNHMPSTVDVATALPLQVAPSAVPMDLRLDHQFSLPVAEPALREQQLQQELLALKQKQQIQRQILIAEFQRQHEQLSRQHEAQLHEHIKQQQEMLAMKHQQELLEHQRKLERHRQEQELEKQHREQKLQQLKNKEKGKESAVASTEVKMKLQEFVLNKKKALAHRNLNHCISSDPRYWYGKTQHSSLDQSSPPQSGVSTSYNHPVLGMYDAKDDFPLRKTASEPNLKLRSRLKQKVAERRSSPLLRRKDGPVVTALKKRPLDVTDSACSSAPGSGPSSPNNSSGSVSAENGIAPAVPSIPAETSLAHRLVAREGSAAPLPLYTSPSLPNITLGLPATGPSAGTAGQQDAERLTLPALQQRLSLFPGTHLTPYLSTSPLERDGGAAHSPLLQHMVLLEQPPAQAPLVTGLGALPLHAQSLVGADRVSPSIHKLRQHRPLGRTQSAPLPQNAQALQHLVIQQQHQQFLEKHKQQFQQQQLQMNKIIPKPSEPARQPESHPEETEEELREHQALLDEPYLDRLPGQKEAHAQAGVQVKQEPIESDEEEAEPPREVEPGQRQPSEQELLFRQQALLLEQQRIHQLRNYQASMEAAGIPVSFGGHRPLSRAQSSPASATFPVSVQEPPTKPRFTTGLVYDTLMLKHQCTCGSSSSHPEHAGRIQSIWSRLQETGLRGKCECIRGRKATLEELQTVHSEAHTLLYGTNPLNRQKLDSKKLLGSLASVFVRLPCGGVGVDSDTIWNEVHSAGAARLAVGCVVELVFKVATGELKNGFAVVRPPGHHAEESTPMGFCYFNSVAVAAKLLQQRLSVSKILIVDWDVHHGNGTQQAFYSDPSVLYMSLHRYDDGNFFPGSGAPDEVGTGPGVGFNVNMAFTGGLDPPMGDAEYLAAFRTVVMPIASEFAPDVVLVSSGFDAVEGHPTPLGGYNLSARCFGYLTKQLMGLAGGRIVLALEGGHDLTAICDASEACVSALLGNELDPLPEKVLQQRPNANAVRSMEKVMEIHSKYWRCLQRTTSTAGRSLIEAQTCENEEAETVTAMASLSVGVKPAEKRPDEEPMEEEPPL

Histone deacetylase 2 = Histone deacetylase 2 (Homo sapiens, UniProt Q92769); assay: Inhibition of recombinant HDAC2 (unknown origin) using Boc-Lys (acetyl)-AMC as substrate preincubated for 1 hrs followed by substrate addition and measured after 2 hrs by fluorescence based microplate reader analysis
Chain of Histone deacetylase 2 (Q92769 whole entry): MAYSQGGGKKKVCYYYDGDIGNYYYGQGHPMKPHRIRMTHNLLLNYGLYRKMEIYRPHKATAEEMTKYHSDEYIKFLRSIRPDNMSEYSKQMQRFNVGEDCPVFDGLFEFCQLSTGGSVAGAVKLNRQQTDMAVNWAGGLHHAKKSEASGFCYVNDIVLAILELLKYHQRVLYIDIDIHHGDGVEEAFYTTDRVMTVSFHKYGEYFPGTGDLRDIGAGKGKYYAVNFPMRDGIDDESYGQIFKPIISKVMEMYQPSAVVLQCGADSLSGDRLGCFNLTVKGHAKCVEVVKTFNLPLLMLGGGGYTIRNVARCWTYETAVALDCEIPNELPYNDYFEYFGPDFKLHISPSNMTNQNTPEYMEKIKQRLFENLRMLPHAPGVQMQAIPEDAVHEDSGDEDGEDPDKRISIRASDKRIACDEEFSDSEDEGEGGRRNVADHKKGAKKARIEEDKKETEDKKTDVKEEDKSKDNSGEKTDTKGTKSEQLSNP

Histone deacetylase 8 = target: T2, Histone deacetylase 8 (Homo sapiens, UniProt Q9BY41); assay: Inhibition of recombinant HDAC8 (unknown origin) using Boc-Lys (trifluoroacetyl)AMC as substrate preincubated for 1 hrs followed by substrate addition and measured after 2 hrs by fluorescence based microplate reader analysis
T2 sequence (Q9BY41 whole entry): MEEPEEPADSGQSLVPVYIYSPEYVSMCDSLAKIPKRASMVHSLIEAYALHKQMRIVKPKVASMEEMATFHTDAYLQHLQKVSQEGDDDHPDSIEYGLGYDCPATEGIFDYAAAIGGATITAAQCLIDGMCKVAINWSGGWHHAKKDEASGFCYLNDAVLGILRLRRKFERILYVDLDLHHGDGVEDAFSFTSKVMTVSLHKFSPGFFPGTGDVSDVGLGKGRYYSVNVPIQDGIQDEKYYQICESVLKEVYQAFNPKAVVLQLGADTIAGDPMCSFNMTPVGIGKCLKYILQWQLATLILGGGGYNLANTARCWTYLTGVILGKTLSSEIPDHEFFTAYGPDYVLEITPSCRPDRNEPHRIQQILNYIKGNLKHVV

Histone deacetylase 1 = Histone deacetylase 1 (Homo sapiens, UniProt Q13547); assay: Inhibition of recombinant HDAC1 (unknown origin) using Boc-Lys (acetyl)-AMC as substrate preincubated for 1 hrs followed by substrate addition and measured after 2 hrs by fluorescence based microplate reader analysis
Chain of Histone deacetylase 1 (Q13547 whole entry): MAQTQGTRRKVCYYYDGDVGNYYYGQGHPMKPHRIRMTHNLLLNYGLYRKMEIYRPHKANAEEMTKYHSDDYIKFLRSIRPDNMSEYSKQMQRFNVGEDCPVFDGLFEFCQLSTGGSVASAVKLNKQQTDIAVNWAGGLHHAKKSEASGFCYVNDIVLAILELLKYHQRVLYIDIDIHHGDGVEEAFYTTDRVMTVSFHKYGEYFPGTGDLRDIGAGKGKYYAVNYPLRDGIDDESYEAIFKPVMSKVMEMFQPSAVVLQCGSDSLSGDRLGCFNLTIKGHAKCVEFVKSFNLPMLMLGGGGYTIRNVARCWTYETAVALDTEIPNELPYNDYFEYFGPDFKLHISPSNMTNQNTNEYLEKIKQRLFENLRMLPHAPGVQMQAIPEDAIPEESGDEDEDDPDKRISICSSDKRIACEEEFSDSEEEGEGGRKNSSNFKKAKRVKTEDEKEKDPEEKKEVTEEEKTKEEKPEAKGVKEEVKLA

Histone deacetylase 7 = target: T3, Histone deacetylase 7 (Homo sapiens, UniProt Q8WUI4); assay: Inhibition of recombinant HDAC7 (unknown origin) using Boc-Lys (trifluoroacetyl)AMC as substrate preincubated for 1 hrs followed by substrate addition and measured after 2 hrs by fluorescence based microplate reader analysis
T3 sequence (Q8WUI4 whole entry): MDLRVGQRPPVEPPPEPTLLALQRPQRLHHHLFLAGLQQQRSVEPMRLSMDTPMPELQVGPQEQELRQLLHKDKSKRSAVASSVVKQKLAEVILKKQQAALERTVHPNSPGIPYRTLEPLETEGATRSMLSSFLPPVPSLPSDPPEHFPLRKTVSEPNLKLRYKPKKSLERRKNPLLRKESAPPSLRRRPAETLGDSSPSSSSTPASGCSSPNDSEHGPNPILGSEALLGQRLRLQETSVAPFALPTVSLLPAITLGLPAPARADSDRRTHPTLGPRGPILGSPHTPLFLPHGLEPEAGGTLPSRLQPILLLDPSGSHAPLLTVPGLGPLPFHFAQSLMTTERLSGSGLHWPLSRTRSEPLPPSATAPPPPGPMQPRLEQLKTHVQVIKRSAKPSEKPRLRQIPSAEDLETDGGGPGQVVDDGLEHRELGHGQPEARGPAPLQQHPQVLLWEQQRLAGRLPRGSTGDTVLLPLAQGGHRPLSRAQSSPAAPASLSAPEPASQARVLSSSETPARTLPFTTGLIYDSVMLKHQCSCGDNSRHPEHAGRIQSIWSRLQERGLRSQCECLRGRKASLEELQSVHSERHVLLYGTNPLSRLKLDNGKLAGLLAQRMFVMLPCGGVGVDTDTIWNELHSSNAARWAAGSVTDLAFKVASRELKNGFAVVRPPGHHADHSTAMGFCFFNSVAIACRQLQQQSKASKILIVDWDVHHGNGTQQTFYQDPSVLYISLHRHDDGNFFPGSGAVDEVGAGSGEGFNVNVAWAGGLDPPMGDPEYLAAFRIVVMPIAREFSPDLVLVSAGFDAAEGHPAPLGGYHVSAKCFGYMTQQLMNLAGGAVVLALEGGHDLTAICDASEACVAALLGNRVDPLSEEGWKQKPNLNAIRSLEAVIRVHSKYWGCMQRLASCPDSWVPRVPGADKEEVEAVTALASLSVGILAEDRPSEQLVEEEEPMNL

Histone deacetylase 11 = target: T4, Histone deacetylase 11 (Homo sapiens, UniProt Q96DB2); assay: Inhibition of recombinant HDAC11 (unknown origin) using ETDKacyl-Kmyr as substrate preincubated for 1 hrs followed by substrate addition and measured after 2 hrs by fluorescence based microplate reader analysis
T4 sequence (Q96DB2 whole entry): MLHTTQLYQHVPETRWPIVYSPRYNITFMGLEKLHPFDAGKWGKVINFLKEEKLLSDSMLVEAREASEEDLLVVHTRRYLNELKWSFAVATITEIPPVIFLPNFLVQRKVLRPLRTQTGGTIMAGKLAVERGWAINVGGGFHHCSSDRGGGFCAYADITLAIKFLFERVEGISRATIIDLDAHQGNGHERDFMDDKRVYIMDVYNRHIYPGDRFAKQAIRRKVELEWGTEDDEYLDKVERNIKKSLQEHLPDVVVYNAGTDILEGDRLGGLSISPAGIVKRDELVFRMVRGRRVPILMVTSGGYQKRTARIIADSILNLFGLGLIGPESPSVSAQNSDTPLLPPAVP

L02 [5] = assay: Cytotoxicity against HL7702 cells assessed as effect on cell viability incubated for 48 hrs by resazurin reagent based assay; assay type: toxicity; conditions: human, l02, 48 h

IC50 (Histone deacetylase 3) [µM] | IC50 (Histone deacetylase 2) [µM] | IC50 (Histone deacetylase 1) [µM] | Compound | also measured
 |  |  | CCNNC(=O)c1ccc(CN2c3ccccc3C=Cc3ccncc32)cc1 | clearance at 24 h (in vivo [1]): 30.6 mL/min/kg; IC50 [2]: > 10 µM; Activity (L02 [3]): Toxic; IC50 (J774.A1): 25.6 µM; Vd at 24 h (in vivo [4]): 3.51 L/kg
3.75 | > 10 | 8.74 | CCNNC(=O)c1ccc(CN2c3ccccc3C=Cc3ccncc32)c(F)c1 | IC50 (Histone deacetylase 9): 2.27 µM; IC50 (Histone deacetylase 5): > 10 µM; IC50 [2]: > 10 µM; IC50 (Histone deacetylase 4): > 10 µM; IC50 (Histone deacetylase 8): > 10 µM; IC50 (Histone deacetylase 7): > 10 µM; IC50 (Histone deacetylase 11): > 10 µM
 |  |  | O=C(CCCCCCNC(=O)c1cnc(N(c2ccccc2)c2ccccc2)nc1)NO [RICOLINOSTAT] | Activity (L02 [5]): Toxic
> 10 | > 10 | > 10 | CCNNC(=O)c1cc(F)c(Cn2c3ccccc3c3cccnc32)cc1F | 
> 10 | > 10 | > 10 | CCNNC(=O)c1cc(F)c(CN2c3ccccc3C=Cc3ccncc32)c(F)c1 | 
> 10 | > 10 | > 10 | CCNNC(=O)c1cc(F)c(CNc2cccc3cccnc23)cc1F | 
> 10 | > 10 | > 10 | CCNNC(=O)c1cc(F)c(Cn2c3ccccc3c3ccccc32)cc1F | 
> 10 | > 10 | > 10 | CCNNC(=O)c1cc(F)c(CN2c3ccccc3Sc3cccnc32)cc1F | 
7.04 | > 10 | > 10 | CCNNC(=O)c1cc(F)c(CN2c3ccccc3C=Cc3ccncc32)cc1F | IC50 (Histone deacetylase 9): > 10 µM; IC50 (Histone deacetylase 5): > 10 µM; IC50 [2]: > 10 µM; IC50 (Histone deacetylase 4): > 10 µM; IC50 (Histone deacetylase 8): > 10 µM; IC50 (Histone deacetylase 7): > 10 µM; IC50 (Histone deacetylase 11): > 10 µM
> 10 | > 10 | > 10 | CCNNC(=O)c1cc(F)c(CN2c3ccccc3C=Cc3ccccc32)cc1F | 
6.37 | > 10 | > 10 | O=C(NNCCF)c1ccc(CN2c3ccccc3C=Cc3ccncc32)cc1 | 
1.79 | > 10 | > 10 | CCNNC(=O)c1ccc(CN2c3ccccc3C=Cc3ccncc32)cc1F | 
